Data set [1] deals with T1, T7 RNA polymerase (Escherichia phage T7, UniProt P00573). The data set is classed as biochemical. To be noted: for effect of 3′ blocked adenosine derivatives on normal RNA transcription and on CoA-RNA transcription: 4 mM, without coenzymes or in the presence of 4 mM De-P-CoA; for relative CoA-RNA yield / total RNA yield relative to RNA obtained at 1 mM ATP and 0 mM De-P-CoA: 4 mM De-P-CoA. An excerpt:
To physically separate CoA-RNA from pppRNA by PAGE, a different RNA sequence of 35 nucleotides was designed to allow a specific DNazyme (Santoro, S. W. and Joyce, G. F., Proc. Natl. Acad. Sci. USA 94: 4262-4266 (1997)) cleavage after transcription. Two DNA oligonucleotides with the sequence of 5′-[…]-3′ (SEQ ID NO:2) and 5′-[…]-3′ (SEQ ID NO:3) were used to construct (by PCR) a DNA duplex template, from which a 35 nt RNA sequence of 5′-[…]-3′ (SEQ ID NO:4) was transcribed. A DNazyme (with the sequence of 5′-[…]-3′; SEQ ID NO:5) was then used to specifically cleave off a portion of the 3′ heterogeneous ends of both CoA-RNA and pppRNA, yielding a homogeneous length of 25 nt CoA-RNA and pppRNA. Similar transcription conditions were used with the exception of different concentrations of ATP. Transcribed RNA (about […]) was incubated with […] DNazyme for 60 minutes at 37° C. in 50 mM MgCl2 and 50 mM Tris, pH 8.0. RNA was then analyzed by 12% denaturing PAGE.
(§1) After polyacrylamide gel electrophoresis, individual RNA bands were visualized through phosphorimaging (Molecular Imager, Bio-Rad Laboratories, Hercules, Calif.). Quantitation of different RNA bands was achieved through profile integration after horizontal background subtraction. Coenzyme-RNA (CoE-RNA) yields were calculated based on relative intensity of pppRNA bands (N, N+1, and N+2 bands) in the absence of coenzymes. To confirm the validity of the calculation, DNazyme-cleaved pppRNA and CoA-RNA were quantitated directly after gel resolution of CoA-RNA from pppRNA. In addition, CoA-RNA yield was determined independently by thiopropyl Sepharose 6B affinity chromatography based on its free sulfhydryl group.
To physically resolve coenzyme-RNA from pppRNA by gel, a DNazyme (Santoro, S. W., and Joyce, G. F., Proc. Natl. Acad. Sci. USA, 94: 4262-4266 (1997)) was designed to trim off the 3′ heterogeneous ends of RNA.

Data set [2] addresses T1, T7 RNA polymerase. Put plainly: Coenzyme-initiated in vitro transcription of CoES7 RNA under T7 class II promoter, PAGE and phosphorimaging. The note with it: for relative intensity of N band RNA / relative intensity of N+1 band RNA / relative intensity of N+2 band RNA: 4 mM coenzyme, 1 mM each NTP, CoES7 RNA, 2 hours 37° C.; for total RNA yields versus standard transcription conditions: higher than 8 mM coenzyme. The data set is classed as biochemical. The method, then:
Transcription promoter sequence was derived from the T7 class II promoter (φ2.5) (FIG. 1) (Dunn, J. J., and Studier, F. W., J. Mol. Biol. 166: 477-535 (1983)). The RNA sequence was from a previously isolated coenzyme-synthesizing ribozyme (Huang, F., et al., Biochemistry 39: 15548-15555 (2000)), CoES7, with the sequence of 5′-[…]-3′ (SEQ ID NO:1). Transcription was carried out under the following standard conditions: 1 mM each of ATP, UTP, GTP, and CTP, 40 mM Tris (pH 8.0), 6 mM MgCl2, 2 mM spermidine, 0.01% Triton X-100, 5 mM DTT, 0.2 unit/mL RNase inhibitor, […] DNA templates, and 5 unit/mL T7 RNA polymerase. In addition, different concentrations of coenzymes, De-P-CoA, NAD, and FAD were included to initiate transcription. For quantitation purposes, [α-^32P]ATP (NEN Life Science, Boston, Mass.) was also added to transcription solutions to internally label RNA transcripts. All transcription reactions were allowed to proceed for 2 hours at 37° C. before product analysis by 8% denaturing PAGE.
Transcription of CoES7 RNA was carried out under the standard conditions, with the addition of various concentrations of coenzymes. After fractionation by PAGE, different RNA bands became clearly visible. In the absence of any coenzymes (lane 1), transcription produced three pppRNA bands in decreasing order: the full-length RNA transcripts (N band), N+1, and N+2 bands (with one and two extra nucleotides added at the 3′ end of full-length RNA). Their relative yields were 59%, 35%, and 6% (from N to N+2), respectively. When one of the three coenzymes, De-P-CoA, NAD, and FAD, was added to the transcription solution (lanes 2-4), no additional RNA bands were generated. However, the relative intensity of the three RNA bands in each lane changed considerably when compared with that of lane 1. […] In the presence of 4 mM De-P-CoA (lane 2), the relative intensity of the three bands changed to 40%, 45%, and 15% (from N to N+2). The relative RNA band intensity were 30%, 49%, and 21% for both NAD- and FAD-initiated transcription (lanes 3 and 4). These changes in RNA band relative intensity resulted from the incorporation of coenzymes (De-P-CoA, NAD, and FAD) into RNA. When one of these coenzymes is incorporated to the 5′ end of RNA, the coenzyme-linked RNA (CoE-RNA) behaves as if an extra normal nucleotide is added to the pppRNA. Therefore, the N band CoE-RNA co-migrates with the N+1 band pppRNA, while the N+1 band CoE-RNA and the N+2 band pppRNA run together in the gel. The N+2 band CoE-RNA was barely visible because of its low intensity. To confirm the incorporation of coenzymes into RNA under the class II promoter, three independent experiments were performed: resolution of CoA-RNA from pppRNA by gel after DNazyme cleavage, measurement of free sulfhydryl group of CoA-RNA, and fluorescence emission spectrum of FAD-RNA.

For data set [3], the target named is T1, T7 RNA polymerase. The note with it: CoES7 RNA prepared under 1 mM ATP and 4 mM De-P-CoA. The method, then: as §1
Data set [4] is described as follows: Fluorescence emission spectra of FAD-RNA and free FAD. The data set is classed as physicochemical. To be noted: 0.5 M sodium acetate, pH 5.2.
The mark [5] stands for this setting: different coenzyme concentrations (De-P-CoA: low concentrations; FAD: especially >4 mM), FIGS. 4A-4C.
[6] abbreviates: 0.2-0.5 mM ATP and 4 mM De-P-CoA.

Like-named read-outs stand apart in the source and are kept apart here.

T1 sequence (P00573 whole entry): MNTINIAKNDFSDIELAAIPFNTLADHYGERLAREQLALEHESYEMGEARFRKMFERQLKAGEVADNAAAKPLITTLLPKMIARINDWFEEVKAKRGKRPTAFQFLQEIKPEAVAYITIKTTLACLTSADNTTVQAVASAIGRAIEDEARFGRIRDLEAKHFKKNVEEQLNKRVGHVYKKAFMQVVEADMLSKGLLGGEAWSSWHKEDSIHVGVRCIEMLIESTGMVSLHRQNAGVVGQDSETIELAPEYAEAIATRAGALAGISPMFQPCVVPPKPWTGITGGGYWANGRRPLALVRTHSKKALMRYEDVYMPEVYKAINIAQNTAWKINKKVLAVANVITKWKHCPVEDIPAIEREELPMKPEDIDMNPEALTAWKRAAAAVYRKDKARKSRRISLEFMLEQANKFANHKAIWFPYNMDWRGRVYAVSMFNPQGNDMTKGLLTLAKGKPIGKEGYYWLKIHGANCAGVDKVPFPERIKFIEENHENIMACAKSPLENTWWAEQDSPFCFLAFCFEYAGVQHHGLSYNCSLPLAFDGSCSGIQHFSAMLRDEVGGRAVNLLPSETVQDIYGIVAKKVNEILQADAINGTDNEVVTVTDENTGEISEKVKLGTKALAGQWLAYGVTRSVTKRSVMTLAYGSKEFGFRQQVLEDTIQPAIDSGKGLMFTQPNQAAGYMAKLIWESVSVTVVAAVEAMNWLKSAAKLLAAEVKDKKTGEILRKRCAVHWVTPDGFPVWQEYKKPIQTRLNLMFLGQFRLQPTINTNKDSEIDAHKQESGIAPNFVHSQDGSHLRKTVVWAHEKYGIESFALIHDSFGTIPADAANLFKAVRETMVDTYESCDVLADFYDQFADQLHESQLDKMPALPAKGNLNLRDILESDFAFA

`Nc1ncnc2c1ncn2[C@@H]1O[C@H](CO)[C@@H](OP(=O)(O)O)[C@H]1O` [3′ AMP]: the “effect of 3′ blocked adenosine derivatives on normal RNA transcription and on CoA-RNA transcription” value at T7 RNA polymerase [1] is “neither CoA nor 3′ AMP has detectable effect”.
On the same count and under the same terms, the result for `CC(C)(COP(=O)(O)OP(=O)(O)OC[C@H]1O[C@@H](n2cnc3c(N)ncnc32)[C@H](O)[C@@H]1OP(=O)(O)O)[C@@H](O)C(=O)NCCC(=O)NCCS` [CoA, coenzyme A] reads “neither CoA nor 3′ AMP has detectable effect”.
On to `CC(C)(COP(=O)(O)OP(=O)(O)OC[C@H]1O[C@@H](n2cnc3c(N)ncnc32)[C@H](O)[C@@H]1O)[C@@H](O)C(=O)NCCC(=O)NCCS` [De-P-CoA, 3′-Dephospho coenzyme A], for which, on T7 RNA polymerase [2], the “relative intensity of N band RNA” value is 40%, the “relative intensity of N+1 band RNA” value came to 45%, the “relative intensity of N+2 band RNA” value came out at 15% and the “total RNA yields versus standard transcription conditions” value was “significantly lower”. The “coenzyme-RNA (CoE-RNA) yield over total RNA synthesized” value at T7 RNA polymerase [2] (4-8 mM coenzyme, standard transcription conditions) was 30-35%. Further, the “effect on total RNA yield (transcription)” value (“effect on total RNA yield” for short) at T7 RNA polymerase [2] (setting [5]) is “stimulates transcription to some extent”. In addition, the “effect on total RNA yield” value at T7 RNA polymerase [2] (higher concentrations of De-P-CoA) is reported as “eventually becomes inhibitory”. At T7 RNA polymerase [1] (0.1 mM ATP), the “relative CoA-RNA yield” value was 56%; the “total RNA yield relative to RNA obtained at 1 mM ATP and 0 mM De-P-CoA” value is recorded as 12%. For the same compound, at T7 RNA polymerase [1] (0.2 mM ATP), the “relative CoA-RNA yield” value was found to be 52%; the “total RNA yield relative to RNA obtained at 1 mM ATP and 0 mM De-P-CoA” value was 44%. At T7 RNA polymerase [1] (0.5 mM ATP), the “relative CoA-RNA yield” value stood at 46%; the “total RNA yield relative to RNA obtained at 1 mM ATP and 0 mM De-P-CoA” value amounted to 85%. Besides, the “total RNA yield relative to RNA obtained at 1 mM ATP and 0 mM De-P-CoA” value at T7 RNA polymerase [1] (1 mM ATP) is 110%. Also, the “relative CoA-RNA yield” value on T7 RNA polymerase [1] (1 mM ATP, 1 mM GTP, CTP, UTP) is listed as 33%. Also, on T7 RNA polymerase [1] (setting [6]), the “CoA-RNA produced by transcription” value is given as “over 50%” and the “reduction in total RNA yields” value is 20-50%. For the same compound, on T7 RNA polymerase [3], the “loaded RNA retained on thiopropyl Sepharose 6B column (CoA-RNA yield)” value is reported as 30-35%.
Turning to `Cc1cc2nc3c(=O)[nH]c(=O)nc-3n(C[C@H](O)[C@H](O)[C@H](O)COP(=O)(O)OP(=O)(O)OC[C@H]3O[C@@H](n4cnc5c(N)ncnc54)[C@H](O)[C@@H]3O)c2cc1C` [FAD, flavin adenine dinucleotide], on T7 RNA polymerase [2], the “relative intensity of N band RNA” value stood at 30%, the “relative intensity of N+1 band RNA” value stood at 49%, the “relative intensity of N+2 band RNA” value is recorded as 21% and the “total RNA yields versus standard transcription conditions” value was “significantly lower”. Besides, on T7 RNA polymerase [2] (setting [5]), the “effect on total RNA yield” value was “somewhat inhibitory effect”. Moreover, the “enhancement of fluorescence intensity by urea” value in data set [4] (4 M urea) stood at 1.7 fold. Also, the “enhancement of fluorescence intensity by urea” value in data set [4] (7 M urea) is given as 2.7 fold.

The values are drawn from US7323319B2, “RNA containing coenzymes, biotin, or fluorophores, and methods for their preparation and use” (The University of Southern Mississippi, priority 2003, dated 2008).
